Results taken from US8609858B2, “Spiro derivatives of parthenin as novel anticancer agents” (Council of Scientific & Industrial Research, priority 2008, dated 2013).

Tests used:
[1] = test system: human cancer cell lines; assay: In vitro cytotoxicity screening, human cancer cell lines in general; assay type: cell-based; conditions: all the cell lines used, read-out: growth inhibition of human cancer cell lines
Method: (§1) Cells at sub confluent stage were harvested from the flask by treatment with trypsin (0.5% in PBS containing 0.02% EDTA) for determination of cytotoxicity. Cells with viability of more than 98%, as determined by trypan blue, were used for assay. The cell suspensions of required cell density were prepared in complete growth medium with gentamycin (50 μg/ml) for determination of cytotoxicity. The cells (100 μl/well) were inoculated in 96 well tissue culture plates. The cells were allowed to grow for 24 hrs temperature of 37° C. and in a humidified atmosphere of 5% CO2 in air. Stock solution of (20 mM) of test material was prepared in DMSO. The stock solution was serially diluted with complete growth medium containing 50 μg/ml of gentamycin to obtain […] working test solutions of 1., 2, 5, 10, 50 and 100 μM. In vitro cytotoxicity (IC50 value) against human cancer cell lines was determined using sulphodamine B dye.^5,6 The results are summarized in table 4.
(§2) The human Cancer Cell lines were obtained either from National Center for Cell Science, Pune, India or National Cancer Institute, Frederick, U.S.A. The human cancer cell colon: SW-620, prostrate, PC-3, DU-145 and acute lymphoblastic leukemia (MOLT-4) were grown and maintained in RPMI-1640 medium, pH 7.4, HEP-2. […]

[2] = test system: Hep-2; assay: In vitro cytotoxicity screening (sulphodamine B dye), Hep-2; assay type: cell-based; conditions: Homo sapiens, read-out: cell growth inhibition
Method: as §1, §2

[3] = test system: Ehrlich Ascites Tumor (EAT); assay: Anti tumor activity on solid Ehrlich Ascites Tumor (EAT) bearing mice; assay type: in vivo; conditions: for % Tumor growth inhibition / Tumor Weight (mg) Mean ± SE: nine days, day 13
Description: Non-inbred swiss albino mice from an in-house colony were used in the present study. The breeding and experimental animals were housed in standard size polycarbonate cages providing internationally recommended space for each animal. Animals were fed balanced mice feed supplied by MIs Ashirwad Industries, Chandigarh (India) and autoclaved water was available ad libitum. Animals were cared as per the guide for the care and use of laboratory animals (1996), ILAR, Washington D.C. They were housed in controlled conditions of temperature (23±2° C.), humidity (50-60%) and 12:12 hrs of light: dark cycle. The study and the number of animals used were approved by the institutional animal ethics committee, IIIM, Jammu, India. The study was conducted as per the protocols of National Cancer Institute (NCl), USA (Geran et al., 1972).
Parthenin and its derivative Compound-17 were evaluated against solid Ehrlich Ascites Tumor (EAT) models at different doses. A standard procedure for experiment was as followed:
Animals of the same sex weighing 20±3 g were injected 1×10^7 cells collected from the peritoneal cavity of non-inbred swiss mice, bearing 8-10 days old tumor cells, into the right thigh, intramuscularly (on Day 1). On next day animals were randomized and divided into test groups (7 animals in each test group) and one tumor control group (10 animals). Test groups were treated with different doses of Parthenin (10 mg/kg, 25 mg/kg and 50 mg/kg) and its derivative Compound-17 (10 mg/kg, 25 mg/kg and 50 mg/kg, 100 mg/kg and 200 mg/kg) suspension in 1% gum acacia in, their respective group intraperitonealy for nine consecutive days. Another test group was administered 5-FU @ 22 mg/kg i.p and served as positive control. The tumor contra group was similarly administered normal saline (0.2 ml i.p). The percent tumor growth-inhibition was measured on day 13 with respect to their tumor weight (Geran et al., 1972): Shortest and longest diameters of the tumor mass were measured with the help of vernier caliper and tumor weight (mg) was calculated by using following formula Tumor weight (mg)=Length (mm)×(Width (mm)^2/2 The average tumor weight for each group was calculated and the percent tumor growth inhibition in treated groups was calculated as follows: % Tumor Growth Inhibition=100×(Average tumor weight of control group−Average tumor weight of test group)/Average tumor weight of control group Anti Tumor Activity of Parthenin and its Derivative Compound-17 on Ehrlich Ascites Carcinoma (EAC)

C[C@H]1CC[C@@H]2[C@@H](OC(=O)C23CC(c2c4ccccc4cc4ccccc24)=NO3)[C@]2(C)C(=O)C=C[C@@]12O (some centres unmarked) [Compound -17]
inhibition at 5 µM [1]: ≥ 70% | inhibition at 5 µM [2]: 71% | % Tumor growth inhibition ([3]; 10 mg/kg i.p.): 9.44% | Tumor Weight (mg) Mean ± SE ([3]; 10 mg/kg i.p.): 1547.14 ± 36.63 mg | % Tumor growth inhibition ([3]; 25 mg/kg i.p.): 15.38% | Tumor Weight (mg) Mean ± SE ([3]; 25 mg/kg i.p.): 1445.71 ± 41.52 mg | % Tumor growth inhibition ([3]; 50 mg/kg i.p.): 22.03% | Tumor Weight (mg) Mean ± SE ([3]; 50 mg/kg i.p.): 1332.14 ± 32.59 mg | % Tumor growth inhibition ([3]; 100 mg/kg i.p.): 35.11% | Tumor Weight (mg) Mean ± SE ([3]; 100 mg/kg i.p.): 1108.57 ± 38.02 mg | mortality of test animals ([3]; 200 mg/kg i.p., EAT bearing mice): All animals died by 3rd day
